Patent US20160185797A1, “ALKYNYL ALCOHOLS AND METHODS OF USE” (Genentech, Inc., priority 2013, published 2016)

Columns and labels:
[1] = tested on: p52 (NF-kB2) nuclear translocation in HeLa cells; assay: p52 (NF-kB2) nuclear translocation assay in HeLa cells, anti-lymphotoxin beta receptor antibody stimulated (non-classical NF-kB signaling), high content imaging; assay type: cell-based; details: Homo sapiens, 100 ng/mL anti-lymphotoxin beta receptor antibody for 5 hours, read-out: p52 HeLa Transloc Assay (IC50)
Outline: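 HeLa cells in 10% FBS medium were treated with compound (0.2% DMSO final) and stimulated with 100 ng/mL anti-lymphotoxin beta receptor antibody for 5 h. Fixed cells were immunostained for p52 and imaged with DRAQ5 nuclear stain. Translocation is the nuclear to cytoplasmic intensity ratio, […].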

[2] = target: T1, nuclear factor-kappa B (NF-kB)-inducing kinase (NIK) (Homo sapiens, UniProt Q99558); assay: NIK enzyme inhibition assay (Transcreener ADP fluorescence polarization, NIK ADP-FP); assay type: biochemical
T1 construct: made in house; host or cells: baculovirus-infected insect cells

[3] = tested on: REL-A (p65) nuclear translocation in HeLa cells; assay: REL-A (p65) nuclear translocation assay in HeLa cells, TNF-α stimulated (classical NF-kB signaling), high content imaging; assay type: cell-based; details: Homo sapiens, HeLa, compound 4.5 h, then 10 ng/mL TNF-α for 30 minutes, read-out: REL-A HeLa Transloc Assay (IC50)
Outline: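 HeLa cells in medium with 10% fetal bovine serum were exposed to compounds (0.2% DMSO final) for 4.5 hours, then stimulated with 10 ng/mL TNF-α for 30 minutes. After fixation in 4% paraformaldehyde and permeabilization with 0.1% Triton X-100, cells were stained with 400 ng/mL anti-REL-A (p65) antibody, an Alexa488 secondary and DRAQ5. Opera imaging quantified the nuclear-to-cytoplasmic signal ratio to give IC50.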

T1 sequence (Q99558 whole entry): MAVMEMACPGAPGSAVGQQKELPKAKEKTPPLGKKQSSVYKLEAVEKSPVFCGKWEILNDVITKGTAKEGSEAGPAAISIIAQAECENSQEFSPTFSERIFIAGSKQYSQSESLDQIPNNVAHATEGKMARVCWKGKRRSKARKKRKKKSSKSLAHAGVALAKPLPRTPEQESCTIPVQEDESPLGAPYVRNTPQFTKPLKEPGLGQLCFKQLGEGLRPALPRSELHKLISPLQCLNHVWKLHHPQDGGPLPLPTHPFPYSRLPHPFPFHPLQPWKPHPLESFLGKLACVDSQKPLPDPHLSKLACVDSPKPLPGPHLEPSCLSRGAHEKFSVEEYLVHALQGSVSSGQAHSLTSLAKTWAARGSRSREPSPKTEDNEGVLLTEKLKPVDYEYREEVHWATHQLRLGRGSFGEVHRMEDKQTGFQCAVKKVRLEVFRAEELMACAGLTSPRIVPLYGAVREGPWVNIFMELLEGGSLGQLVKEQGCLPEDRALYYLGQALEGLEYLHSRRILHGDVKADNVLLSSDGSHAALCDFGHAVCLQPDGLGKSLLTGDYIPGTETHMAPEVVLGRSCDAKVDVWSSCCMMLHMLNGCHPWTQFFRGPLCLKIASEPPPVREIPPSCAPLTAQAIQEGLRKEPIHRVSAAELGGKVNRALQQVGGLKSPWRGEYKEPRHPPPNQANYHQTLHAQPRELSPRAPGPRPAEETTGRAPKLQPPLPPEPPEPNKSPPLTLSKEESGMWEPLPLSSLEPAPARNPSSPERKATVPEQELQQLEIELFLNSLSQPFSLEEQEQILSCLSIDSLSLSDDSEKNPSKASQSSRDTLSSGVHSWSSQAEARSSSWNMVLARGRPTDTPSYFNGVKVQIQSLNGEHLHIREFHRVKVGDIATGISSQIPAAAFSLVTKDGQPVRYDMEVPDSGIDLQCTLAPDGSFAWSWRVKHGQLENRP

Cc1cn2cc(C(N)=O)nc(-c3cccc(C#C[C@]4(O)CCN(C)C4=O)c3)c2n1 [Example 76, 8-[3-[2-[(3R)-3-hydroxy-1-methyl-2-oxo-pyrrolidin-3-yl]ethynyl]phenyl]-2-methyl-imidazo[1,2-a] pyrazine-6-carboxamide]
IC50 [1]: 101 nM | Ki [2]: 0.86 nM | IC50 [3]: ≥ 20000 nM

CN1CC[C@@](O)(C#Cc2cccc(-c3cc4c(C(F)(F)F)c[nH]c4c(C(N)=O)n3)c2)C1=O [Example 159, 5-[3-[2-[(3R)-3-hydroxy-l-methyl-2-oxo-pyrrolidin-3-yl]ethynyl]phenyl]-3-(trifluoromethyl)-1H-pyrrolo [2,3-c]pyridine-7-carboxamide]
IC50 [1]: 73 nM | Ki [2]: < 0.05 nM | IC50 [3]: > 2000 nM

Cc1nnc([C@](C)(O)C#Cc2cccc(-c3nc(C(N)=O)c(N)cc3F)c2)o1 [Example 130, 3-amino-5-fluoro-6-[3-[(3R)-3-hydroxy-3-(5-methyl-1,3,4-oxadiazol-2-yl)but-1-ynyl]phenyl]pyridine-2-carboxamide]
IC50 [1]: ≥ 2000 nM | Ki [2]: 9.05 nM | IC50 [3]: ≥ 2000 nM

Cc1nnc([C@](C)(O)C#Cc2cccc(-c3nc(C(N)=O)cc(-n4nccc4C)n3)c2)o1 [Example 150]
IC50 [1]: 628 nM | Ki [2]: 0.99 nM | IC50 [3]: > 2000 nM

CN1CC[C@@](O)(C#Cc2cccc(-c3ncc(N[C@@H]4CCOC4)c(C(N)=O)n3)c2)C1=O [Example 143, 2-[3-[2-[(3R)-3-hydroxy-1-methyl-2-oxo-pyrrolidin-3-yl]ethynyl]phenyl]-5-[[(3R)-tetrahydrofuran-3-yl]amino] pyrimidine-4-carboxamide]
IC50 [1]: 8.12 nM | Ki [2]: 0.05 nM | IC50 [3]: ≥ 20000 nM

C[C@@H]1CCN1c1cc(C(N)=O)nc(-c2cccc(C#C[C@]3(O)CCN(C)C3=O)c2)n1 [Example 22, 2-[3-[2-[(3R)-3-hydroxy-1-methyl-2-oxo-pyrrolidin-3-yl]ethynyl]phenyl]-6-[(2R)-2-methylazetidin-1-yl]pyrimidine-4-carboxamide]
IC50 [1]: 85 nM | Ki [2]: 1.14 nM | IC50 [3]: > 20000 nM

CN1CC[C@@](O)(C#Cc2cccc(-c3nc(C(N)=O)c(N)cc3F)c2)C1=O [Example 59, 3-amino-5-fluoro-6-[3-[2-[(3R)-3-hydroxy-1-methyl-2-oxo-pyrrolidin-3-yl]ethynyl]phenyl] pyridine-2-carboxamide]
IC50 [1]: 23.2 nM | Ki [2]: 0.16 nM | IC50 [3]: 6320 nM

CN1CC[C@@](O)(C#Cc2cccc(-c3cc(N)cc(C(N)=O)n3)c2)C1=O [Example 124, 4-amino-6-[3-[2-[(3R)-3-hydroxy-1-methyl-2-oxo-pyrrolidin-3-yl]ethynyl]phenyl]pyridine-2-carboxamide]
IC50 [1]: 300 nM | Ki [2]: 0.05 nM | IC50 [3]: ≥ 2000 nM

CN1CC[C@@](O)(C#Cc2cccc(-c3nc(C(N)=O)c(NC[C@H]4CCO4)cc3F)c2)C1=O [Example 82, 5-fluoro-6-[3-[2-[(3R)-3-hydroxy-1-methyl-2-oxo-pyrrolidin-3-yl]ethynyl]phenyl]-3-[[(2R)-oxetan-2-yl]methylamino] pyridine-2-carboxamide]
IC50 [1]: 95.5 nM | Ki [2]: 0.33 nM | IC50 [3]: ≥ 2000 nM

CN1CC[C@@](O)(C#Cc2cccc(-c3cc4c(Cl)c[nH]c4c(C(N)=O)n3)c2)C1=O [Example 78, 3-chloro-5-[3-[2-[(3R)-3-hydroxy-1-methyl-2-oxo-pyrrolidin-3-yl]ethynyl]phenyl]-1H-pyrrolo[2,3-c]pyridine-7-carboxamide]
IC50 [1]: 8.3 nM | Ki [2]: 0.1 nM | IC50 [3]: 15700 nM

CN1CC[C@@](O)(C#Cc2cc(-c3ccc(N)c(C(N)=O)n3)ccc2F)C1=O [Example 152, 3-amino-6-[4-fluoro-3-[2-[(3R)-3-hydroxy-l-methyl-2-oxo-pyrrolidin-3-yl]ethynyl]phenyl] pyridine-2-carboxamide]
IC50 [1]: 46 nM | Ki [2]: < 0.05 nM | IC50 [3]: > 2000 nM

CN1CC[C@@](O)(C#Cc2cccc(-c3nc(C(N)=O)cc(C(F)(F)F)n3)c2)C1=O [Example 17, 2-[3-[2-[(3R)-3-hydroxy-1-methyl-2-oxo-pyrrolidin-3-yl]ethynyl]phenyl]-6-(trifluoromethyl)pyrimidine-4-carboxamide]
IC50 [1]: 225 nM | Ki [2]: 0.84 nM | IC50 [3]: > 20000 nM

CN1CC[C@@](O)(C#Cc2cccc(-c3cc(-c4ncccn4)cc(C(N)=O)n3)c2)C1=O [Example 129, 6-[3-[2-[(3R)-3-hydroxy-1-methyl-2-oxo-pyrrolidin-3-yl]ethynyl]phenyl]-4-pyrimidin-2-yl-pyridine-2-carboxamide]
IC50 [1]: 155 nM | Ki [2]: 0.3 nM | IC50 [3]: ≥ 2000 nM

CN1CC[C@@](O)(C#Cc2cccc(-c3nc(C(N)=O)c(N)n4ccnc34)c2)C1=O [Example 112, 5-amino-8-[3-[2-[(3R)-3-hydroxy-1-methyl-2-oxo-pyrrolidin-3-yl]ethynyl]phenyl]imidazo[1,2-a] pyrazine-6-carboxamide]
IC50 [1]: 88.8 nM | Ki [2]: 0.05 nM | IC50 [3]: ≥ 20000 nM

CN1CC[C@@](O)(C#Cc2cccc(-c3nc(C(N)=O)c4ccccc4n3)c2)C1=O [Example 4, 2-[3-[2-[(3R)-3-hydroxy-1-methyl-2-oxo-pyrrolidin-3-yl]ethynyl]phenyl]quinazoline-4-carboxamide]
IC50 [1]: 31.9 nM | Ki [2]: 0.05 nM | IC50 [3]: > 20000 nM

CN1CC[C@@](O)(C#Cc2cccc(-c3nc(C(N)=O)cc(-c4cc(F)cc(F)c4)n3)c2)C1=O [Example 97, 6-(3,5-difluorophenyl)-2-[3-[2-[(3R)-3-hydroxy-1-methyl-2-oxo-pyrrolidin-3-yl]ethynyl]phenyl]pyrimidine-4-carboxamide]
IC50 [1]: 57.5 nM | Ki [2]: 0.37 nM | IC50 [3]: ≥ 20000 nM

CN1CC[C@@](O)(C#Cc2cccc(-c3cc(OC(F)F)cc(C(N)=O)n3)c2)C1=O [Example 162, 4-(difluoromethoxy)-6-[3-[2-[(3R)-3-hydroxy-l-methyl-2-oxo-pyrrolidin-3-yl]ethynyl]phenyl]pyridine-2-carboxamide]
IC50 [1]: 67 nM | Ki [2]: < 0.05 nM | IC50 [3]: > 2000 nM

CN1CC[C@@](O)(C#Cc2cccc(-c3nc(NC4CC4)cc(C(N)=O)n3)c2)C1=O [Example 9, 6-(cyclopropylamino)-2-[3-[2-[(3R)-3-hydroxy-1-methyl-2-oxo-pyrrolidin-3-yl]ethynyl]phenyl] pyrimidine-4-carboxamide]
IC50 [1]: 270 nM | Ki [2]: 1.24 nM | IC50 [3]: > 20000 nM

CN1CC[C@@](O)(C#Cc2cccc(-c3nc(C(N)=O)cc4c3CCC4)c2)C1=O [Example 46, 1-(3-[2-[(3R)-3-hydroxy-1-methyl-2-oxopyrrolidin-3-yl]ethynyl]phenyl)-5H,6H,7H-cyclopenta[c] pyridine-3-carboxamide]
IC50 [1]: 103 nM | Ki [2]: 0.62 nM | IC50 [3]: > 20000 nM

COCCNc1cnc(-c2cc(C#C[C@]3(O)CCN(C)C3=O)ccc2F)nc1C(N)=O [Example 109, 2-[2-fluoro-5-[2-[(3R)-3-hydroxy-1-methyl-2-oxo-pyrrolidin-3-yl]ethynyl]phenyl]-5-(2-methoxyethylamino) pyrimidine-4-carboxamide]
IC50 [1]: 83.1 nM | Ki [2]: 0.28 nM | IC50 [3]: ≥ 2000 nM

Cc1nc(-c2cccc(C#C[C@]3(O)CCN(C)C3=O)c2)nc(C(N)=O)c1N [Example 172, 5-amino-2-[3-[2-[(3R)-3-hydroxy-1-methyl-2-oxo-pyrrolidin-3-yl]ethynyl]phenyl]-6-methyl-pyrimidine-4-carboxamide]
IC50 [1]: 78 nM | Ki [2]: 0.36 nM | IC50 [3]: > 2000 nM

Cc1cc(C(N)=O)nc(-c2cc(C#C[C@]3(O)CCN(C)C3=O)ccc2F)c1 [Example 158, 6-[2-fluoro-5-[2-[(3R)-3-hydroxy-1-methyl-2-oxo-pyrrolidin-3-yl]ethynyl]phenyl]-4-methyl-pyridine-2-carboxamide]
IC50 [1]: 63 nM | Ki [2]: 0.06 nM | IC50 [3]: > 2000 nM

Cc1nccn1-c1cc(C(N)=O)nc(-c2cccc(C#C[C@]3(O)CCN(C)C3=O)c2)n1 [Example 141, 2-[3-[2-[(3R)-3-hydroxy-1-methyl-2-oxo-pyrrolidin-3-yl]ethynyl]phenyl]-6-(2-methylimidazol-1-yl) pyrimidine-4-carboxamide]
IC50 [1]: 328 nM | Ki [2]: 0.37 nM | IC50 [3]: ≥ 20000 nM

Cc1cnc2c(-c3cccc(C#C[C@]4(O)CCN(C)C4=O)c3)nc(C(N)=O)cn12 [Example 75, 8-[3-[2-[(3R)-3-hydroxy-1-methyl-2-oxo-pyrrolidin-3-yl]ethynyl]phenyl]-3-methyl-imidazo[1,2-a]pyrazine-6-carboxamide]
IC50 [1]: 66.8 nM | Ki [2]: 0.38 nM | IC50 [3]: ≥ 20000 nM

COc1ccc2c(C(N)=O)nc(-c3cccc(C#C[C@]4(O)CCN(C)C4=O)c3)nc2c1 [Example 44, 2-(3-[2-[(3R)-3-hydroxy-1-methyl-2-oxopyrrolidin-3-yl]ethynyl]phenyl)-7-methoxyquinazoline-4-carboxamide]
IC50 [1]: 17.5 nM | Ki [2]: 0.11 nM | IC50 [3]: > 20000 nM

CN1CC[C@@](O)(C#Cc2cccc(-c3cc(C(F)(F)F)cc(C(N)=O)n3)c2)C1=O [Example 135, 6-[3-[2-[(3R)-3-hydroxy-1-methyl-2-oxo-pyrrolidin-3-yl]ethynyl]phenyl]-4-(trifluoromethyl) pyridine-2-carboxamide]
IC50 [1]: 147 nM | Ki [2]: 0.53 nM | IC50 [3]: ≥ 2000 nM
